Test results published in US7173151B2, “Cycloalkyl-substituted alkanoic acid derivatives, processes for their preparation and their use as pharmaceuticals” (Sanofi-AventisDeutschand GmbH, priority 2003, dated 2007).

molecular target: T1, GR-GAL4-humanPPARalpha-LBD (Homo sapiens, UniProt Q07869); experiment: Cellular PPARalpha assay (luciferase reporter, stably transfected HEK cell line); assay type: cell-based
T1 construct: amino acids S167–Y468; expressed in transfected cells; host or cells: HEK cells, stably transfected (pcDNA3, CMV promoter)
T1 sequence (Q07869 167-468): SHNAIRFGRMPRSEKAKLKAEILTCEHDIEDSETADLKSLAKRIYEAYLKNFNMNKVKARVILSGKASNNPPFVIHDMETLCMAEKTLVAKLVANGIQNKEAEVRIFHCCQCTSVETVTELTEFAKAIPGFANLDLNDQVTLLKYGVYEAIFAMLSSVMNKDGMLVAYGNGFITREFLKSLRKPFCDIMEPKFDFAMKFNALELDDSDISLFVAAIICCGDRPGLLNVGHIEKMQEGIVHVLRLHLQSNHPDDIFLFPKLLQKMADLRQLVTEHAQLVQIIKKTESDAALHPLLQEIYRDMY
Procedure: Determination of EC50 Values of PPAR Agonists in the Cellular PPARalpha Assay
The potency of substances which bind to human PPARalpha and activate in an agonistic manner is analyzed using a stably transfected HEK cell line (HEK=human embryo kidney) which is referred to here as PPARalpha reporter cell line. It contains two genetic elements, a luciferase reporter element (pdeltaM-GAL4-Luc-Zeo) and a PPARalpha fusion protein (GR-GAL4-humanPPARalpha-LBD) which mediates expression of the luciferase reporter element depending on a PPARalpha ligand. The stably and constitutively expressed fusion protein GR-GAL4-humanPPARalpha-LBD binds in the cell nucleus of the PPARalpha reporter cell line via the GAL4 protein portion to the GAL4 DNA binding motifs 5′-upstream of the luciferase reporter element which is integrated in the genome of the cell line. There is only little expression of the luciferase reporter gene without addition of a PPARalpha ligand if fatty acid-depleted fetal calf serum (cs-FCS) is used in the assay. PPARalpha ligands bind and activate the PPARalpha fusion protein and thereby bring about expression of the luciferase reporter gene. The luciferase which is formed can be detected by means of chemiluminescence via an appropriate substrate.
The PPARalpha reporter cell line was prepared in 2 stages. Firstly, the luciferase reporter element was constructed and stably transfected into HEK cells. For this purpose, five binding sites of the yeast transcription factor GAL4 (each 5′-CGGAGTACTGTCCTCCGAG-3′) (SEQ ID No. 1) were cloned in 5′-upstream of a 68 bp-long minimal MMTV promoter (Genbank Accession #V01175). The minimal MMTV promoter section contains a CCAAT box and a TATA element in order to enable efficient transcription by RNA polymerase II. The cloning and sequencing of the GAL4-MMTV construct took place in analogy to the description of Sambrook J. et. al. (Molecular cloning, Cold Spring Harbor Laboratory Press, 1989). Then the complete Photinus pyralis gene (Genbank Accession #M15077) was cloned in 3′-downstream of the GAL4-MMTV element. After sequencing, the luceriferase reporter element consisting of five GAL4 binding sites, MMTV promoter and luciferase gene was recloned into a plasmid which confers zeocin resistance in order to obtain the plasmid pdeltaM-GAL4-Luc-Zeo. This vector was transfected into HEK cells in accordance with the statements in Ausubel, F. M. et al. (Current protocols in molecular biology, Vol. 1–3, John Wiley & Sons, Inc., 1995).
In a second step, the PPARalpha fusion protein (GR-GAL4-humanPPARalpha-LBD) was introduced into the stable cell clone described. For this purpose, initially the cDNA coding for the N-terminal 76 amino acids of the glucocorticoid receptor (Genbank Accession #P04150) was linked to the cDNA section coding for amino acids 1–147 of the yeast transcription factor GAL4 (Genbank Accession #P04386). The cDNA of the ligand-binding domain of the human PPARalpha receptor (amino acids S167–Y468; Genbank Accession #S74349) was cloned in at the 3′-end of this GR-GAL4 construct. The fusion construct prepared in this way (GR-GAL4-humanPPARalpha-LBD) was recloned into the plasmid pcDNA3 (from Invitrogen) in order to enable constitutive expression therein by the cytomegalovirus promoter. This plasmid was linearized with a restriction endonuclease and stably transfected into the previously described cell clone containing the luciferase reporter element. The finished PPARalpha reporter cell line which contains a luciferase reporter element and constitutively expresses the PPARalpha fusion protein (GR-GAL4-human PPARalpha-LBD) was isolated by selection with zeocin (0.5 mg/ml) and G418 (0.5 mg/ml).
The activity of PPARalpha agonists is determined in a 3-day assay which is described below: […]

Structure (SMILES)	EC50
CCCCCCCN(CCO[C@@H]1CCC[C@H](CCC(C)(C)C(=O)O)C1)C(=O)NC1CCCCC1 (racemic) [Example 11, 4-{cis-3-[2-(3-cyclohexyl-1-heptylureido)ethoxy]cyclohexyl}-2,2-dimethylbutyrate]	28 nM
CCCCCCCN(CCO[C@@H]1CCC[C@H](CCC(CC)C(=O)O)C1)C(=O)NCCCC (relative stereo) [Example 2, 4-{cis-3-[2-(3-butyl-1-heptylureido)ethoxy]cyclohexyl}-2-ethylbutyric acid]	1 nM
CCCCCCCN(CCO[C@@H]1CCC[C@H](CCC(C(=O)O)C(C)C)C1)C(=O)NCCCC (relative stereo) [Example 5, 2-(2-{cis-3-[2-(3-butyl-1-heptylureido)ethoxy]cyclohexyl}ethyl)-3-methylbutyric acid]	0.38 nM
CCCCNC(=O)N(CCO[C@@H]1CCC[C@H](CCC(C)(C)C(=O)O)C1)Cc1ccc(C)cc1 (relative stereo) [Example 10, 4-(cis-3-{2-[3-butyl-1-(4-methylbenzyl)ureido]ethoxy}cyclohexyl)-2,2-dimethylbutyric acid]	74 nM

Second part, the compound after the results:

EC50	Structure (SMILES)
1.1 nM	CCC(CCC1CCCC(OCCN(Cc2ccc(C)cc2)C(=O)NC2CCCCC2)C1)C(=O)O (racemic) [Example 1, 4-(cis-3-{2-[3-cyclohexyl-1-(4-methylbenzyl)ureido]ethoxy}cyclohexyl)-2-ethylbutyric acid]
8.8 nM	CCCCCCCN(CCOC1CCCC(CCC(C)(C)C(=O)O)C1)C(=O)NCCCC (racemic) [Example 9, 4-{cis-3-[2-(3-butyl-1-heptylureido)ethoxy]cyclohexyl)-2,2-dimethylbutyric acid]
0.56 nM	CCCCCCCN(CCO[C@@H]1CCC[C@H](CCC(CC)C(=O)O)C1)C(=O)NC1CCCCC1 (relative stereo) [Example 3, 4-{cis-3-[2-(3-cyclohexyl-1-heptylureido)ethoxy]cyclohexyl}-2-ethylbutyric acid]
